Data as given in patent US20220184055A1, “CHIAURANIB FOR TREATMENT OF SMALL CELL LUNG CANCER” (SHENZHEN CHIPSCREEN BIOSCIENCES CO., LTD., priority 2019, published 2022).
Entries after “also recorded” stand apart in the source; their conditions may differ.

How the values were obtained:
SCLC = details: combined with best supportive treatment; cited from earlier work
[1] = tested on: recurrent and refractory small cell lung cancer; assay: Phase Ib clinical trial of chiauranib alone in recurrent and refractory small cell lung cancer; assay type: in vivo, human; details: 50 mg/day QD oral
Procedure: Test drug: Chiauranib capsules, strength: 5 mg, 25 mg, produced by Shenzhen Chipscreen Biosciences, Co., Ltd.
Dosage regimen: Chiauranib capsules were administered at 50 mg/day, QD (no adjustments to body weight or body surface area), on an empty stomach every morning with water, swallowing whole capsules intact. Continuous administration for 28 days constituted a treatment cycle, and there was no interval between treatment cycles.
Number of cases: 25 cases were enrolled.
The test subjects were administered with 50 mg of Chiauranib capsules orally once a day, every 28 days as a treatment cycle, and there was no stopping interval during the treatment cycles. Throughout the trial period, all subjects continued treatment until any of the following conditions (whichever occurred first) occurred: disease progression, intolerable toxic response, death, withdrawal of informed consent, or loss to follow-up.
Efficacy evaluation: According to the RECIST1.1 standard, evaluation was performed in the baseline period and at the 4th weekend after treatment, and repeated every 8 weeks until the disease progressed. Tumor imaging examinations include CT or MRI of the neck, chest, whole abdomen, and pelvis. Examinations of other parts were carried out when necessary based on clinical indications. The same techniques and methods should be employed for the baseline of the lesion and follow-up assessment and measurement.
(§1) Safety assessment: physical examination, vital signs, ECOG fitness score, blood routine, urine routine, 12-lead ECG blood biochemistry, electrolytes, coagulation function, myocardial enzymes, troponin, TSH, FT3, FT4, amylase, echocardiography, 24-hour urine protein quantification (if necessary), and adverse events were included.

advanced solid tumors = assay: Phase I clinical trial of chiauranib in patients with advanced solid tumors; assay type: in vivo, human; details: for objective remission (complete remission CR and partial remission PR): 18 patients, 8 tumor types, oral once daily 10-65 mg dose escalation, RECIST 1.1
Procedure: Test drug: chiauranib capsules, strength: 5 mg, 25 mg, produced by Shenzhen Chipscreen Biosciences, Co., Ltd.
Dosage regimen: The starting dose was 10 mg/day. After the starting dose, according to the modified Fibonacci method, the patients were enrolled in order from low dose to high dose, and the set dose groups were 20 mg, 35 mg, 50 mg, 65 mg . . . dose groups, respectively, until the MTD was determined.
Chiauranib capsules were administered orally, once a day in the morning. Before knowing the analysis data of the effects of food on bioavailability, the drugs were administered on empty stomach.
Number of cases: 18 cases were enrolled.
The prescribed dose of Chiauranib capsules was administered orally on empty stomach once every day, and every 28 days was a treatment cycle; there was no stopping interval during the treatment cycles, and all enrolled patients received the test drug treatment until the disease progressed or intolerable toxicity appeared.
Efficacy evaluation: The clinical benefits of tumor treatment include:
Judgment criteria: The efficacy was evaluated according to the RECIST version 1.1 (2009) standard of solid tumors.
as §1, with “physical” for “fitness”, “ECG,” for “ECG”
A total of 18 patients were enrolled in the trial, all of which were included in the FAS, SS, and PPS analysis sets. Among the 18 patients, 7 cases (38.9%) had colorectal cancer, 5 cases (27.8%) had non-small cell lung cancer, and 1 case each for gastric cancer, ovarian cancer, thyroid papillary carcinoma, diffuse large B-cell lymphoma, fibrosarcoma, and poorly differentiated renal carcinoma.

[2] = 20 patients with efficacy evaluation

SMILES	overall survival, quality of life and improvement of symptoms versus best supportive treatment alone (SCLC)	objective response rate (ORR) / PR (%) [1, 2]	patients whose target lesions were reduced by more than 30% from baseline, number [1, 2]	patients whose target lesions were reduced by more than 30% from baseline, percent [1, 2]	best efficacy evaluation PR, number of patients ([1]; 20 patients with efficacy evaluation of 25 enrolled, RECIST 1.1)	PR, number of patients (advanced solid tumors; 8 common tumors, 18 patients evaluated)	objective remission (complete remission CR and partial remission PR) (advanced solid tumors)	objective remission (complete remission CR and partial remission PR) (advanced solid tumors; listed as Chiauranib)
CC[C@@]1(O)C(=O)OCc2c1cc1n(c2=O)Cc2cc3c(CN(C)C)c(O)ccc3nc2-1 [topotecan]	significantly better							
COc1ccc2c(Oc3ccc4c(C(=O)Nc5ccccc5N)cccc4c3)ccnc2c1 [chiauranib, N-(2-aminophenyl)-6-(7-methoxyquinoline-4-oxo)-1-naphthylamide]		20%	5 patients	25%	4 patients	0	no objective remission was observed; also recorded: no patients with objective remission were observed	no cases with objective remission were observed
